From patent US9226916B2, “Pyrrolidine derivatives” (HOFFMANN-LA ROCHE INC., priority 2009, dated 2016)
Read-outs that look alike come from different tables or passages of the source.

Molecular target: T1, recombinant human NK3 receptor (Homo sapiens, UniProt P29371)
T1 construct: expressed in transfected cells; host or cells: HEK293 cells, transient expression; membranes
T1 sequence (P29371 1-465): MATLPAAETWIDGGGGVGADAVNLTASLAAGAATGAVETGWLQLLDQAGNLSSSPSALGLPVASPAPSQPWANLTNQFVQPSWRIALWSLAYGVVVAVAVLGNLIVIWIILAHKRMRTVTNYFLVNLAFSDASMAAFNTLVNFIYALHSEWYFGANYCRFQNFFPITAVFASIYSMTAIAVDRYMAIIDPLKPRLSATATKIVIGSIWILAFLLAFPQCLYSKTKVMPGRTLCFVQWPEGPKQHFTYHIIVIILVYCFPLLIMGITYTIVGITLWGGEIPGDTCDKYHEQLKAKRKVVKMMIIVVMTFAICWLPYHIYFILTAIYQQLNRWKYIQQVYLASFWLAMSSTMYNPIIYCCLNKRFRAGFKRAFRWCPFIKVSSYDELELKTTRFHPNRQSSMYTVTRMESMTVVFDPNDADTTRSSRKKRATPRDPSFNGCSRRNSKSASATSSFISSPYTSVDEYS
Assay: [3H]SR142801 competition binding assay

| Compound | Ki [nM] | Ki (hNK-3 receptor affinity, membranes from HEK293 cells transiently expressing recombinant human NK3 receptor, [3H]SR142801, Cheng-Prussoff, read-out: Data Ki) [nM] |
| --- | --- | --- |
| CN(C(=O)Oc1ccc(F)cc1)[C@H]1CN(C(=O)C2CCN(C(=O)C3(C)CC3)CC2)C[C@@H]1c1ccc(Cl)cc1 (racemic) [Example 26, rac-{(3R,4S)-4-(4-Chloro-phenyl)-1-[1-(1-methyl-cyclopropanecarbonyl)-piperidine-4-carbonyl]-pyrrolidin-3-yl}-methyl-carbamic acid 4-fluoro-phenyl ester] | 2.9 |  |
| CCCCOC(=O)N(C)[C@H]1CN(C(=O)C2CCN(C(=O)C3(C)CC3)CC2)C[C@@H]1c1ccc(Cl)cc1 (racemic) [Example 27, rac-{(3R,4S)-4-(4-Chloro-phenyl)-1-[1-(1-methyl-cyclopropanecarbonyl)-piperidine-4-carbonyl]-pyrrolidin-3-yl}-methyl-carbamic acid butyl ester] | 30.7 |  |
| CN(C(=O)OCCC(C)(C)C)[C@H]1CN(C(=O)C2CCN(C(=O)C3(C)CC3)CC2)C[C@@H]1c1ccc(Cl)c(Cl)c1 (racemic) [Example 30, rac-{(3R,4S)-4-(3,4-Dichloro-phenyl)-1-[1-(1-methyl-cyclopropanecarbonyl)-piperidine-4-carbonyl]-pyrrolidin-3-yl}-methyl-carbamic acid 3,3-dimethyl-butyl ester] | 10.3 |  |
| CN(C(=O)OCC1CCOCC1)[C@H]1CN(C(=O)C2CCN(C(=O)C3(C)CC3)CC2)C[C@@H]1c1ccc(Cl)c(Cl)c1 (racemic) [Example 31, rac-{(3R,4S)-4-(3,4-Dichloro-phenyl)-1-[1-(1-methyl-cyclopropanecarbonyl)-piperidine-4-carbonyl]-pyrrolidin-3-yl}-methyl-carbamic acid tetrahydro-pyran-4-ylmethyl ester] | 11.6 |  |
| CN(C(=O)OCC1CCCC1)[C@H]1CN(C(=O)C2CCN(C(=O)C3(C)CC3)CC2)C[C@@H]1c1ccc(Cl)c(Cl)c1 (racemic) [Example 32, rac-{(3R,4S)-4-(3,4-Dichloro-phenyl)-1-[1-(1-methyl-cyclopropanecarbonyl)-piperidine-4-carbonyl]-pyrrolidin-3-yl}-methyl-carbamic acid cyclopentylmethyl ester] | 1.4 |  |
| CN(C(=O)Oc1ccc(F)cc1)[C@H]1CN(C(=O)[C@H]2CC[C@H](O)CC2)C[C@@H]1c1ccc(Cl)c(Cl)c1 (racemic) [Example 37, rac-[(3R,4S)-4-(3,4-Dichloro-phenyl)-1-(trans-4-hydroxy-cyclohexanecarbonyl)-pyrrolidin-3-yl]-methyl-carbamic acid 4-fluoro-phenyl ester] | 0.7 |  |
| CN(C(=O)Oc1ccc(F)cc1)[C@H]1CN(C(=O)C2CCN(C(=O)C3(C)CC3)CC2)C[C@H]1c1ccc(Cl)c(Cl)c1 (racemic) [Example 40, rac-{(3R,4R)-4-(3,4-Dichloro-phenyl)-1-[1-(1-methyl-cyclopropanecarbonyl)-piperidine-4-carbonyl]-pyrrolidin-3-yl}-methyl-carbamic acid 4-fluoro-phenyl ester] | 4.2 |  |
| CC1(C(=O)N2CCC(C(=O)N3C[C@H](NC(=O)Oc4ccc(F)cc4)[C@@H](c4ccc(Cl)c(Cl)c4)C3)CC2)CC1 (racemic) [Example 43, rac-{(3R,4S)-4-(3,4-Dichloro-phenyl)-1-[1-(1-methyl-cyclopropanecarbonyl)-piperidine-4-carbonyl]-pyrrolidin-3-yl}-carbamic acid 4-fluoro-phenyl ester] | 3.4 |  |
| CN(C(=O)Oc1ccc(F)cc1)[C@H]1CN(C(=O)C2CCOCC2)C[C@@H]1c1ccc(Cl)c(Cl)c1 (racemic) [Example 44, rac-[(3R,4S)-4-(3,4-Dichloro-phenyl)-1-(tetrahydro-pyran-4-carbonyl)-pyrrolidin-3-yl]-methyl-carbamic acid 4-fluoro-phenyl ester] | 2.9 |  |
| CN(C(=O)Oc1ccc(F)cc1)[C@H]1CN(C(=O)[C@H]2CC[C@@H](O)CC2)C[C@@H]1c1ccc(Cl)c(Cl)c1 (racemic) [Example 47, rac-[(3R,4S)-4-(3,4-Dichloro-phenyl)-1-(cis-4-hydroxy-cyclohexanecarbonyl)-pyrrolidin-3-yl]-methyl-carbamic acid 4-fluoro-phenyl ester] | 3.4 |  |
| CN(C(=O)Oc1ccc(F)cc1)[C@H]1CN(C(=O)N2CCOCC2)C[C@@H]1c1ccc(Cl)c(Cl)c1 (racemic) [Example 48, rac-[(3R,4S)-4-(3,4-Dichloro-phenyl)-1-(morpholine-4-carbonyl)-pyrrolidin-3-yl]-methyl-carbamic acid 4-fluoro-phenyl ester] | 29.4 |  |
| CO[C@H]1CC[C@@H](C(=O)N2C[C@H](c3ccc(Cl)c(Cl)c3)[C@@H](N(C)C(=O)Oc3ccc(F)cc3)C2)CC1 (racemic) [Example 49, rac-[(3R,4S)-4-(3,4-Dichloro-phenyl)-1-(cis-4-methoxy-cyclohexanecarbonyl)-pyrrolidin-3-yl]-methyl-carbamic acid 4-fluoro-phenyl ester] | 3.5 |  |
| CN(C(=O)Oc1ccc(F)cc1)[C@H]1CN(C(=O)[C@H]2CC[C@](C)(O)CC2)C[C@@H]1c1ccc(Cl)c(Cl)c1 (racemic) [Example 52, rac-[(3R,4S)-4-(3,4-Dichloro-phenyl)-1-(trans-4-hydroxy-4-methyl-cyclohexanecarbonyl)-pyrrolidin-3-yl]-methyl-carbamic acid 4-fluoro-phenyl ester] | 8.1 |  |
| CN(C(=O)Oc1ccc(F)cc1)[C@H]1CN(C(=O)[C@H]2CC[C@@](C)(O)CC2)C[C@@H]1c1ccc(Cl)c(Cl)c1 (racemic) [Example 53, rac-[(3R,4S)-4-(3,4-Dichloro-phenyl)-1-(cis-4-hydroxy-4-methyl-cyclohexanecarbonyl)-pyrrolidin-3-yl]-methyl-carbamic acid 4-fluoro-phenyl ester] | 4.7 |  |
| CN(C(=O)Oc1ccc(F)cc1)[C@H]1CN(C(=O)CCC(N)=O)C[C@@H]1c1ccc(Cl)c(Cl)c1 (racemic) [Example 55, rac-[(3R,4S)-1-(3-Carbamoyl-propionyl)-4-(3,4-dichloro-phenyl)-pyrrolidin-3-yl]-methyl-carbamic acid 4-fluoro-phenyl ester] | 86.1 |  |
| CN(C(=O)Oc1ccc(F)cc1)[C@H]1CN(C(=O)CCN2CCCC2=O)C[C@@H]1c1ccc(Cl)c(Cl)c1 (racemic) [Example 56, rac-{(3R,4S)-4-(3,4-Dichloro-phenyl)-1-[3-(2-oxo-pyrrolidin-1-yl)-propionyl]-pyrrolidin-3-yl}-methyl-carbamic acid 4-fluoro-phenyl ester] | 61.3 |  |
| CN(C(=O)O[C@H]1CC[C@H](C)CC1)[C@H]1CN(C(=O)C2CCN(C(=O)C3(C)CC3)CC2)C[C@@H]1c1ccc(Cl)cc1 (racemic) [Example 57, rac-{(3R,4S)-4-(4-Chloro-phenyl)-1-[1-(1-methyl-cyclopropanecarbonyl)-piperidine-4-carbonyl]-pyrrolidin-3-yl}-methyl-carbamic acid 4-methyl-cyclohexyl ester] | 7.6 |  |
| CC(=O)N1CCC(C(=O)N2C[C@H](c3ccc(Cl)c(Cl)c3)[C@@H](N(C)C(=O)Oc3ccc(F)cc3)C2)CC1 (racemic) [Example 65, rac-[(3R,4S)-1-(1-Acetyl-piperidine-4-carbonyl)-4-(3,4-dichloro-phenyl)-pyrrolidin-3-yl]-methyl-carbamic acid 4-fluoro-phenyl ester] | 0.7 |  |
| CN(C(=O)Oc1ccc(F)cc1)[C@H]1CN(C(=O)C2CCN(C(=O)OC(C)(C)C)CC2)C[C@@H]1c1ccc(Cl)c(Cl)c1 (racemic) [Example 66, rac-4-{(3S,4R)-3-(3,4-Dichloro-phenyl)-4-[(4-fluoro-phenoxycarbonyl)-methyl-amino]-pyrrolidine-1-carbonyl}-piperidine-1-carboxylic acid tert-butyl ester] | 0.8 |  |
| CN(C(=O)OCCCC(F)(F)F)[C@H]1CN(C(=O)C2CCN(C(=O)C3(C)CC3)CC2)C[C@@H]1c1ccc(Cl)c(Cl)c1 (racemic) [Example 67, rac-{(3R,4S)-4-(3,4-Dichloro-phenyl)-1-[1-(1-methyl-cyclopropanecarbonyl)-piperidine-4-carbonyl]-pyrrolidin-3-yl}-methyl-carbamic acid 4,4,4-trifluoro-butyl ester] |  | 0.4 |
| Cc1ccc([C@H]2CN(C(=O)C3CCN(C(=O)C4(C)CC4)CC3)C[C@@H]2N(C)C(=O)Oc2ccc(F)cc2)cc1Cl (racemic) [Example 70, rac-{(3R,4S)-4-(3-Chloro-4-methyl-phenyl)-1-[1-(1-methyl-cyclopropanecarbonyl)-piperidine-4-carbonyl]-pyrrolidin-3-yl}-methyl-carbamic acid 4-fluoro-phenyl ester] | 1.3 |  |
| Cc1cc([C@H]2CN(C(=O)C3CCN(C(=O)C4(C)CC4)CC3)C[C@@H]2N(C)C(=O)Oc2ccc(F)cc2)ccc1Cl (racemic) [Example 71, rac-{(3R,4S)-4-(4-Chloro-3-methyl-phenyl)-1-[1-(1-methyl-cyclopropanecarbonyl)-piperidine-4-carbonyl]-pyrrolidin-3-yl}-methyl-carbamic acid 4-fluoro-phenyl ester] | 1.8 |  |
| CN(C(=O)Oc1ccc(F)cc1)[C@H]1CN(C(=O)C2CCNCC2)C[C@@H]1c1ccc(Cl)c(Cl)c1 (racemic) [Example 72, rac-[(3R,4S)-4-(3,4-Dichloro-phenyl)-1-(piperidine-4-carbonyl)-pyrrolidin-3-yl]-methyl-carbamic acid 4-fluoro-phenyl ester] | 21.2 |  |
